The results in this text go back to ChEMBL document CHEMBL1133125, “A sigma-1 receptor selective analogue of BD1008. A potential substitute for (+)-opioids in sigma receptor binding assays” (Bioorg Med Chem Lett, 2000).

The target of the test is Sigma 2 receptor. Kind of test: Binding affinity against sigma 2 opioid receptor using 3[H]-DTG in the presence of dextrallorphan as radioligand.

Structures are written as SMILES. pKi: −log10 of the molar value. A value given as a limit tells only on which side of the number the result lay.

Usually pKi stands for the negative decadic logarithm of the Ki, by convention in mol/L. With `O=C(Cc1ccc(Cl)c(Cl)c1)OCCN1CCCC1`, the pKi is below 5.00. On to `CN(CCc1ccc(Cl)c(Cl)c1)CCN1CCCC1`, for which the pKi was 8.09.
